Columns and labels:
Type in all cases: cell-based, Human
[1] = tested on: U2OS cells; experiment: DR-GFP assay of HR-mediated repair
Procedure: (§1) Human U2OS, HCT116, hTERT RPE-1, HEK293T, HeLa, U87, T98G, A2780, and human skin fibroblast cells (GM08398 and GM18366) were grown in DMEM media supplemented with 10% bovine calf serum, penicillin/streptomycin and non-essential amino acids. SV40 large T antigen transformed hTERT RPE-1 cells were generated by infecting hTERT RPE-1 cells with a SV40 large T antigen (SV40 LT)-expressing retrovirus and were selected using 500 μg/ml G418. The stable SV40 large T antigen transformed hTERT RPE-1 cell line was then maintained in culture media supplemented 500 μg/ml G418. For chronic treatment with ATR inhibitor (ATRi, VE-821) or ATM inhibitor (ATMi, KU-55933), cells were maintained in media with 5 μM ATR or ATM inhibitor respectively for 8 days before cells were subjected to western blot analysis, proteomic analysis, DR-GFP/EJ5-GFP assay or immunofluorescent staining. For CHK1 inhibitor (UCN-01), cells were treated for 5 days with 0.2 μM of inhibitor before the analysis. Primary human fibroblast cells from control subjects (GM08398) and patients with Seckel syndrome (GM18366, ATR-defective) were obtained from Coriell Institute for Medical Research, Camden, N.J.
For the DR-GFP assay, cells (U2OS, HCT116, hTERT RPE-1, HEK293T, HeLa, U87, T98G, A2780, 293-T-REX-E2F6 cells and SV40 large T antigen transformed hTERT RPE-1) were transfected with the mCherry plasmid or DR-GFP reporter plasmid (pDR-GFP; addgene plasmid 26475) together with a plasmid coding for I-SceI (pCBASceI; addgene plasmid 26477) or DR-GFP reporter plasmid together with an empty plasmid pCAGGS. Two days after transfection, cells were trypsinized, resuspended in PBS and then analyzed by flow cytometry using FACSAria Fusion or Accuri C6 cytometer (BD). In each experiment, the percentage of GFP-positive cells from the sample transfected with empty plasmid pCAGGS was subtracted from the percentage of GFP-positive cells in the sample transfected with I-SceI. The GFP percentage was then normalized by the mCherry transfection efficiency. Each graph was plotted based on at least 3 independent experiments showing mean±SEM (N≥3). For the EJ5-GFP assay, EJ5-GFP reporter plasmid (pimEJ5GFP, addgene plasmid 44026) was used instead of DR-GFP reporter plasmid and the assay was performed as described for DR-GFP assay.

[2] = tested on: U2OS cells; experiment: Cell cycle analysis (propidium iodide, flow cytometry); settings: CHK1i 0.2 μM, 5 days
Procedure: Cells were harvested by standard trypsinization and fixed with 70% ethanol. After fixation, cells from each sample were resuspended in PBS, permeabilized using 0.1% Triton X-100 and treated with RNase A (0.8 mg/ml). Then cells were stained with propidium iodide and analyzed by flow cytometry using FACSAria Fusion (BD) or Accuri C6 cytometer (BD) to determine the fraction of cells in different stages of the cell cycle.

[3] = tested on: U2OS cells; experiment: Immunoblotting of HR factor abundance; settings: CHK1 inhibitor 0.2 μM, 5 days
Procedure: FIG. 5A is a schematic diagram of the SILAC/MS experiment. FIG. 5B is a quadrant diagram of the SILAC/MS experiment. Each dot represents a different identified protein. Proteins with abundance reduced two-fold or more after ATRi treatment are shown in the upper-left corner (white quadrant). FIG. 5C is a WB analysis of U2OS cells after 8 days of chronic treatment with 5 μM of ATRi or ATMi. FIG. 5D is a time course WB analysis of U2OS cells during chronic treatment with 5 μM ATRi. FIG. 5E is a WB analysis of U2OS cells at distinct cell cycle stages. Cells were treated with 1 mM hydroxyurea (HU) or 50 ng/ml nocodazole (Noc) for 24 hours. HU treated cells were released for 2.5 hours in HU-free media. FIG. 5F is a WB analysis of U2OS cells untreated or treated for 8 days with 5 μM ATRi.
as §1
(§2) Cells were harvested and lysed in modified radioimmunoprecipitation assay (RIPA) buffer (50 mM Tris-HCl pH 7.5, 150 mM NaCl, 1% tergitol, 0.25% sodium deoxycholate, 5 mM EDTA) supplemented with Complete EDTA-free protease inhibitor cocktail (Roche), 1 mM PMSF, 5 mM sodium fluoride, 10 mM β-glycerol-phosphate and 0.4 mM sodium orthovanadate. Whole cell lysates were cleared with 5 minute centrifugation at 13,000 rpm at 4° C. and mixed with 3×SDS sample buffer (bromophenol blue, stacking gel buffer, 50% glycerol, 3% SDS and 60 mM DTT). After being resolved on SDS-PAGE gels, proteins were then transferred onto polyvinylidene difluoride (PVDF) membranes and detected with designated antibodies.

[4] = tested on: U2OS cells; experiment: Real time PCR of mRNA levels; settings: ATRi 5 μM 8 days or CHK1i 0.2 μM 5 days, normalized to GAPDH
Text: FIG. 9B is a bar graph showing the analysis of HR-mediated repair using the DR-GFP system. Relative fold change of GFP positive U2OS cells treated with CHK1i compared to DMSO treatment control. (Error bars=SEM, N=4, ****P-value<0.0001; one sample-t-test was used for the statistical analysis). FIGS. 9C-9D show a histogram showing representative FACS data (FIG. 9C) and a bar graph showing quantitation of G1, S and G2/M population for cell cycle analysis of CHK1i treated cells (FIG. 9D) (Error bars=SD, N=3). FIG. 9E are bar graphs showing real time PCR analysis of total RNA extracted from U2OS cells treated with DMSO, ATRi (5 μM for 8 days) or CHK1i (0.2 μM for 5 days). Values were normalized to GAPDH mRNA levels. (Error bars=SD, N=3). FIG. 9F is a schematic diagram showing a proposed model of how E2F transcription is regulated through ATR-CHK1 signaling. […] FIG. 9H is a bar graph showing DR-GFP analysis of 293-T-REX-E2F6 cells after 8 days of treatment with DMSO or doxycycline. (Error bars=SEM, N=4). FIG. 9I is a histogram showing cell cycle analysis of 293-T-REX-E2F6 cells after 8 days of treatment with DMSO or doxycycline. FIG. 9J is a schematic diagram showing a model depicting multiple roles of ATR in the control of HR capacity.
Cells cultured from 10 cm dish were collected and lysed in 1 ml of TRIzol (Invitrogen). Chloroform was added to the lysed sample to separate RNA. Separated RNA was precipitated by isopropyl alcohol, followed by two washes with 75% ethanol. 1 μg of extracted RNA from each sample was then reverse transcribed with Bio-Rad iScript cDNA synthesis kit. The samples (˜100 ng) were analyzed in a Roche 480 light cycler in a total of 15 μl containing SYBR green mix and primers. The values were calculated using “absolute quantification/2nd derivative max” in lightcycler 480 program and then normalized to the level of GAPDH.

[5] = tested on: HCT116 cells; experiment: Western blot after chronic CHK1i; settings: chronic CHK1 inhibition
Procedure: as §2

SMILES: O=c1cc(-c2cccc3c2Sc2ccccc2S3)oc(N2CCOCC2)c1 [ATMi, KU-55933]
- HR-mediated repair efficiency (DR-GFP, GFP positive cells over DMSO) ([1]; 5 μM, chronic 8 days): did not result in major changes in HR-mediated repair efficiency

SMILES: CN[C@@H]1C[C@H]2O[C@@](C)([C@@H]1OC)n1c3ccccc3c3c4c(c5c6ccccc6n2c5c31)C(=O)N[C@@H]4O [CHK1i, UCN-01]
- HR efficiency (DR-GFP) ([1]; CHK1i 0.2 μM, 5 days): sharp decrease in HR efficiency
- Relative number of S phase cells [2]: increase in the relative number of S phase cells
- Abundance of BRCA1, RAD51, RRM2 and E2F1 (WB) [3]: severely reduced
- mRNA levels of BRCA1 and RAD51 [4]: reduction in the mRNA levels of BRCA1 and RAD51
- Level of E2F1 and abundance of other HR proteins (WB) [5]: did not lower the level of E2F1 nor the abundance of other HR proteins

— patent US20190365745A1, “USE OF CHRONIC TREATMENT WITH ATR INHIBITORS TO SENSITIZE CANCER CELLS TO PARP INHIBITORS” (Cornell University, priority 2018, published 2019)
